Activity calls are given as the source filed them. The calls are words filed in the database; no cut-off is given here.
Key:
[1] = system: Mus musculus; test: Potentiation of L-dopa/carbidopa activity in reserpine-treated CD1 mouse assessed as increase in motor activity at 10 mg/kg, ip administered 22 hrs post reserpine challenge followed by L-dopa/carbidopa adminstration at 30 mins measured after 1 hr relative to control; type: functional, organism-based; design: dose 10 mg/kg
[2] = system: Mus musculus; test: Potentiation of L-dopa/carbidopa activity in reserpine-treated CD1 mouse assessed as increase in movement at 10 mg/kg, ip administered 22 hrs post reserpine challenge followed by L-dopa/carbidopa adminstration at 30 mins measured after 1 hr relative to control; type: functional, organism-based; design: dose 10 mg/kg
[3] = system: Mus musculus; test: Toxicity in reserpine-treated CD1 mouse assessed as mortality at 100 mg/kg, ip measured for 24 to 48 hrs; type: organism-based; design: dose 100 mg/kg, route intraperitoneal; details: in vivo
[4] = system: Mus musculus; test: Potentiation of L-dopa/carbidopa activity in reserpine-treated CD1 mouse assessed as increase in motor activity at 100 mg/kg, ip administered 22 hrs post reserpine challenge followed by L-dopa/carbidopa adminstration at 30 mins measured after 1 hr relative to control; type: functional, organism-based; design: dose 100 mg/kg
[5] = system: Mus musculus; test: Potentiation of L-dopa/carbidopa activity in reserpine-treated CD1 mouse assessed as increase in velocity at 100 mg/kg, ip administered 22 hrs post reserpine challenge followed by L-dopa/carbidopa adminstration at 30 mins measured after 1 hr relative to control; type: functional, organism-based; design: dose 100 mg/kg
[6] = system: Mus musculus; test: Potentiation of L-dopa/carbidopa activity in reserpine-treated CD1 mouse assessed as increase in straightening at 100 mg/kg, ip administered 22 hrs post reserpine challenge followed by L-dopa/carbidopa adminstration at 30 mins measured after 1 hr relative to control; type: functional, organism-based; design: dose 100 mg/kg
[7] = system: Mus musculus; test: Neurotoxicity in CD1 mouse assessed as decrease in velocity at 10 mg/kg, ip measured for 1 hr relative to control; type: toxicity, organism-based; design: dose 10 mg/kg, route intraperitoneal; details: in vivo
[8] = system: Mus musculus; test: Potentiation of L-dopa/carbidopa activity in reserpine-treated CD1 mouse assessed as increase in movement at 100 mg/kg, ip administered 22 hrs post reserpine challenge followed by L-dopa/carbidopa adminstration at 30 mins measured after 1 hr relative to control; type: functional, organism-based; design: dose 100 mg/kg
[9] = system: Mus musculus; test: Neurotoxicity in CD1 mouse assessed as decrease in straightening at 10 mg/kg, ip measured for 1 hr relative to control; type: toxicity, organism-based; design: dose 10 mg/kg, route intraperitoneal; details: in vivo
[10] = system: Mus musculus; test: Neurotoxicity in CD1 mouse assessed as decrease in motor activity at 10 mg/kg, ip measured for 1 hr relative to control; type: toxicity, organism-based; design: dose 10 mg/kg, route intraperitoneal; details: in vivo
[11] = system: Mus musculus; test: Neurotoxicity in CD1 mouse assessed as decrease in movement at 10 mg/kg, ip measured for 1 hr relative to control; type: toxicity, organism-based; design: dose 10 mg/kg, route intraperitoneal; details: in vivo
[12] = system: Mus musculus; test: Potentiation of L-dopa/carbidopa activity in reserpine-treated CD1 mouse assessed as increase in straightening at 10 mg/kg, ip administered 22 hrs post reserpine challenge followed by L-dopa/carbidopa adminstration at 30 mins measured after 1 hr relative to control; type: functional, organism-based; design: dose 10 mg/kg
[13] = system: Mus musculus; test: Potentiation of L-dopa/carbidopa activity in reserpine-treated CD1 mouse assessed as increase in velocity at 10 mg/kg, ip administered 22 hrs post reserpine challenge followed by L-dopa/carbidopa adminstration at 30 mins measured after 1 hr relative to control; type: functional, organism-based; design: dose 10 mg/kg

Compound	Activity [1]	Activity [2]	Activity [3]	Activity [4]	Activity [5]	Activity [6]	Activity [7]	Activity [8]	Activity [9]	Activity [10]	Activity [11]	Activity [12]	Activity [13]
O=C(Nc1cc2ccccc2oc1=O)OCc1ccccc1	Active	Active	Non-toxic	Active	Active	Active	Non-toxic	Active	Non-toxic	Non-toxic	Non-toxic		
C#CCN(C)[C@H](C)Cc1ccccc1 [SELEGILINE]	Active	Active					Toxic		Toxic	Toxic	Toxic	Active	Active
